The text below walks through data of patent publication US20250128203A1, “MODIFIED REDOX-ACTIVE SORBENTS FOR ELECTROCHEMICAL CARBON DIOXIDE SEPARATION” (The Johns Hopkins University, priority 2023, published 2025).

Where “and” joins values, the source holds several entries; their conditions need not be identical. Equal entries are not always repeated. Where two headings read alike, the source gives them in different places.

Data set [1] is described as follows: CO2 binding constant (KCO2) calculated from the shift of the second reduction peak in CV. Particulars: for K[CO2] / logK[CO2]: DMF; for ΔEpeak(2): difference between the second reduction peak potentials (IId·−/IId2−) in CO2 and N2. As for the experimental part:
(§1) Electrochemical measurements were conducted using a BioLogic VSP potentiostat (BioLogic Science Instruments). For the cyclic voltammetry measurements, glassy carbon (Ø=3 mm) was used as the working electrode, platinum wire was used as the counter electrode, silver wire was used as the pseudo-reference electrode and ferrocene was used as the internal reference. In a standard cyclic voltammetry measurement, the molecule of interest (2.5 mM) was dissolved in anhydrous DMF with 100 mM NBu4PF6 as the supporting salt. Typical cyclic voltammograms were collected at a scan rate of […]. To study the effects of ionic species on the redox behaviour of the sorbent molecules, 100 mM LiClO4, NaClO4, KClO4, NBu4ClO4, sodium triflate (NaOTf), or sodium bis(trifluoromethanesulfonyl)imide (NaTFSI) was used as the supporting electrolyte salt.
The CO2 binding constant (KCO2) was calculated by Eq 1: […]

Data set [2] is described as follows: Cyclic voltammetry of isoindigos in DMF (half-wave redox potentials under N2 or CO2). The data set is classed as physicochemical. Particulars: for E1/2 (IId/IId·−) in N2: Table 1, first electron transfer, N2, DMF; for E1/2 in N2 (first): first half-wave potential vs. Fc^+/Fc; for E1/2 in N2 (first) / E1/2 in N2 (second) / E1/2 in CO2 (first or single) / E1/2 in CO2 (second): 2.5 mM in DMF; for E1/2 in N2 (first) / E1/2 in N2 (second): 0.1 M NBu4PF6, N2, 298 K; for E1/2 in N2 (second) / E1/2 in CO2 (second): second half-wave potential vs. Fc^+/Fc; for E1/2 in CO2 (first or single) / E1/2 in CO2 (second): 0.1 M NBu4PF6, CO2, 298 K. As for the experimental part:
as §1

A short description of data set [3]: UV-vis absorption, optical band gap. The data set is classed as physicochemical. The note with it: UV-vis absorption (Kubelka-Munk spectra). As for the experimental part: UV-vis absorption spectra were recorded on a Thermo Scientific Genesys 10S UV-vis spectrophotometer.
For data set [4] the following is noted: DMF, cited from earlier work; for E1/2 (1) in CO2: first half-wave potential; for E1/2 (1) in CO2 / E1/2 (2) in CO2 / E1/2 (2) in N2: vs. Fc^+/Fc; for E1/2 (1) in CO2 / E1/2 (2) in CO2: under CO2; for E1/2 (2) in CO2 / E1/2 (2) in N2: second half-wave potential; for E1/2 (2) in N2: under N2.

Regarding `O=C1Nc2ccccc2/C1=C1\C(=O)Nc2ccc(Br)cc21` [5BIId, 5-Bromoisoindigo], in data set [1] (298 K), the “K[CO2]” value was 1.12e+09 M⁻¹ and the “logK[CO2]” value is listed as 9.05. The “logK[CO2]” value in data set [1] (Table 1) is 9.05. In addition, the “ΔEpeak(2)” value in data set [1] is 0.494 V. Besides, in data set [2], the “E1/2 (IId/IId·−) in N2” value is given as −1.19 V vs. Fc^+/Fc; the “E1/2 in N2 (first)” value is recorded as −1.19, V; the “E1/2 in N2 (second)” value was −1.67 V. Also, in data set [2] (Table 5, vs. Fc^+/Fc), the “Experimental 1st half-wave potential in N2” value is reported as −1.19 V. Moreover, in data set [2] (vs. Fc^+/Fc), the “E1/2 in CO2 (first or single)” value is on record as −1.11 V. Further, in data set [3], the Optical band gap is reported as 2.04 eV.
As to `COc1ccc2c(c1)/C(=C1\C(=O)Nc3ccc([N+](=O)[O-])cc31)C(=O)N2` [5M5NIId, 5-Methoxyl-5′-nitroisoindigo], in data set [1] (298 K), the “K[CO2]” value is 4.45e+08 M⁻¹ and the “logK[CO2]” value is recorded as 8.65. In addition, the “ΔEpeak(2)” value in data set [1] is listed as 0.470 V. In data set [2], the “E1/2 in N2 (first)” value is −1.08 V and −1.08, V; the “E1/2 in N2 (second)” value is reported as −1.55 V. Moreover, the “E1/2 in CO2 (first or single)” value in data set [2] (vs. Fc^+/Fc) is on record as −1.08 V. The compound further registered an Optical band gap in data set [3] of 1.71 eV.
Consider `COC(=O)c1ccc2c(c1)NC(=O)/C2=C1/C(=O)Nc2ccc([N+](=O)[O-])cc21` [5N6MCIId, Methyl-5-nitroisoindigo-6-carboxylate], for which, in data set [1] (298 K), the “K[CO2]” value was 41500 M⁻¹ and the “logK[CO2]” value is 4.62. In data set [1], the “ΔEpeak(2)” value was 0.232 V. In data set [2], the “E1/2 in N2 (first)” value was −0.93 V and −0.93, V; the “E1/2 in CO2 (second)” value was −1.15 V; the “E1/2 in N2 (second)” value is reported as −1.40 V. In addition, in data set [2] (vs. Fc^+/Fc), the “E1/2 in CO2 (first or single)” value is listed as −0.94, V. For the same compound, the Optical band gap in data set [3] amounted to 2.08 eV.
Turning to `O=C1Nc2ccccc2/C1=C1\C(=O)Nc2ccc([N+](=O)[O-])cc21` [5NIId, 5-Nitroisoindigo], in data set [1] (298 K), the “K[CO2]” value was 7.63e+08 M⁻¹ and the “logK[CO2]” value is given as 8.88. Also, the “ΔEpeak(2)” value in data set [1] is given as 0.484 V. In addition, in data set [2], the “E1/2 in N2 (first)” value was −1.08 V and −1.08, V; the “E1/2 in N2 (second)” value is given as −1.57 V. Besides, the “E1/2 in CO2 (first or single)” value in data set [2] (vs. Fc^+/Fc) was −1.08 V. For the same compound, the Optical band gap in data set [3] was found to be 2.07 eV.
As for `COC(=O)c1ccc2c(c1)NC(=O)/C2=C1/C(=O)Nc2cc(Br)ccc21` [6B6MCIId, Methyl 6-bromoisoindigo-6′-carboxylate], in data set [1] (298 K), the “K[CO2]” value was 8.34e+08 M⁻¹ and the “logK[CO2]” value is given as 8.92. The “ΔEpeak(2)” value in data set [1] is 0.486 V. In addition, in data set [2], the “E1/2 in N2 (first)” value was −1.05, V and the “E1/2 in N2 (second)” value was −1.55 V. The “E1/2 in CO2 (first or single)” value in data set [2] (vs. Fc^+/Fc) is −1.05 V. Moreover, in data set [3], the Optical band gap was determined as 2.02 eV.
Take `O=C1Nc2ccccc2/C1=C1\C(=O)Nc2cc(Br)ccc21` [6BIId, 6-Bromoisoindigo]: in data set [1] (298 K), the “K[CO2]” value is 6.25e+09 M⁻¹ and the “logK[CO2]” value is given as 9.8. Besides, in data set [1], the “ΔEpeak(2)” value is reported as 0.538 V. Also, in data set [2], the “E1/2 in N2 (first)” value is on record as −1.21, V and the “E1/2 in N2 (second)” value is reported as −1.75 V. Also, the “E1/2 in CO2 (first or single)” value in data set [2] (vs. Fc^+/Fc) is on record as −1.14 V. The Optical band gap in data set [3] turned out to be 2.05 eV.
Consider `O=C1Nc2ccccc2/C1=C1\C(=O)Nc2cc(C(=O)O)ccc21` [6CIId, Isoindigo-6-carboxylic Acid], for which, in data set [1] (298 K), the “K[CO2]” value is 750 M⁻¹ and the “logK[CO2]” value is on record as 2.87. Besides, the “ΔEpeak(2)” value in data set [1] is given as 0.129 V. In addition, in data set [2], the “E1/2 in N2 (first)” value is recorded as −1.09, V; the “E1/2 in CO2 (second)” value is −1.18 V; the “E1/2 in N2 (second)” value is −1.35 V. Also, the “E1/2 in CO2 (first or single)” value in data set [2] (vs. Fc^+/Fc) is on record as −1.06, V. Moreover, the Optical band gap in data set [3] was 2.01 eV.
On to `O=C1Nc2ccc(F)cc2/C1=C1\C(=O)Nc2ccc(F)cc21` [55DFIId, 5,5′-Difluoroisoindigo], for which, in data set [1] (298 K), the “K[CO2]” value was 9.13e+09 M⁻¹ and the “logK[CO2]” value was 9.96. Also, the “ΔEpeak(2)” value in data set [1] was 0.547 V. In data set [2], the “E1/2 in N2 (first)” value is −1.14, V and the “E1/2 in N2 (second)” value is recorded as −1.69 V. Besides, the “E1/2 in CO2 (first or single)” value in data set [2] (vs. Fc^+/Fc) is listed as −1.13 V. The same compound showed an Optical band gap in data set [3] of 1.97 eV.
`COc1ccc2c(c1)/C(=C1\C(=O)Nc3ccc(OC)cc31)C(=O)N2` [55DMIId, 5,5′-Dimethoxylisoindigo]: in data set [1] (298 K), the “K[CO2]” value was 1.13e+09 M⁻¹ and the “logK[CO2]” value is 9.05. The “logK[CO2]” value in data set [1] (Table 1) is reported as 9.05. The “ΔEpeak(2)” value in data set [1] was 0.494 V. In data set [2], the “E1/2 (IId/IId·−) in N2” value is −1.29 V vs. Fc^+/Fc; the “E1/2 in N2 (first)” value was −1.29 V and −1.29, V; the “E1/2 in N2 (second)” value is given as −1.76 V. Further, in data set [2] (vs. Fc^+/Fc), the “E1/2 in CO2 (first or single)” value is on record as −1.2 V. Besides, the Optical band gap in data set [3] worked out at 1.78 eV.
On to `O=C1c2ccccc2C(=O)c2ccccc21` [AQ, anthraquinone], for which, in data set [4], the logKCO2 is recorded as 13.39, the “E1/2 (1) in CO2” value is −1.4 V, the “E1/2 (2) in CO2” value is reported as −1.4 V and the “E1/2 (2) in N2” value was −2.15 V. In data set [4] (listed as anthraquinone), the logKCO2 result is “approximately 13.4”.
For the compound `CCCOC(=O)c1ccc2c(c1)C(=O)c1ccccc1C2=O` [AQ-COO- C3H7], in data set [4], the logKCO2 is 2.56, the “E1/2 (1) in CO2” value was −1.29 V, the “E1/2 (2) in CO2” value is listed as −1.89 V and the “E1/2 (2) in N2” value was −2 V.
As for `O=C1c2ccccc2C(=O)c2cc(Cl)ccc21` [AQ-Cl], in data set [4], the logKCO2 is reported as 2.73, the “E1/2 (1) in CO2” value is recorded as −1.25 V, the “E1/2 (2) in CO2” value is reported as −1.88 V and the “E1/2 (2) in N2” value is given as −2 V.
For the compound `CCCOc1ccc2c(c1)C(=O)c1ccccc1C2=O` [AQ-O-C3H7], in data set [4], the logKCO2 is listed as 11.70, the “E1/2 (1) in CO2” value is −1.55 V, the “E1/2 (2) in CO2” value was −1.55 V and the “E1/2 (2) in N2” value was −2.2 V.
Consider `O=C1C=C(Cl)C(=O)C(Cl)=C1` [BQ-Cl2], for which, in data set [4], the logKCO2 is recorded as 1.86, the “E1/2 (1) in CO2” value is recorded as −0.7 V, the “E1/2 (2) in CO2” value is listed as −1.59 V and the “E1/2 (2) in N2” value is listed as −1.66 V.
`O=C1C(Cl)=C(Cl)C(=O)C(Cl)=C1Cl` [BQ-Cl4]: in data set [4], the logKCO2 is 1.28, the “E1/2 (1) in CO2” value is −0.48 V, the “E1/2 (2) in CO2” value is given as −1.38 V and the “E1/2 (2) in N2” value is −1.42 V.
On to `O=C1C=CC(=O)C=C1` [BQ], for which, in data set [4], the logKCO2 is reported as 18.12, the “E1/2 (1) in CO2” value is −0.95 V, the “E1/2 (2) in CO2” value is listed as −0.95 V and the “E1/2 (2) in N2” value is recorded as −1.98 V.
Take `CC1=C(C)C(=O)C(C)=C(C)C1=O` [DBQ]: in data set [4], the logKCO2 is recorded as 17.61, the “E1/2 (1) in CO2” value was −1.39 V, the “E1/2 (2) in CO2” value was −1.39 V and the “E1/2 (2) in N2” value is −2.39 V.
Consider `CC(C)(C)C1=CC(=O)C=C(C(C)(C)C)C1=O` [TBQ], for which, in data set [4], the logKCO2 was 18.29, the “E1/2 (1) in CO2” value was −1.25 V, the “E1/2 (2) in CO2” value is reported as −1.25 V and the “E1/2 (2) in N2” value was −2.29 V.
For the compound `O=C1C(Cl)=C(Cl)C(=O)c2ccccc21` [p-NQ-Cl2], in data set [4], the logKCO2 is recorded as 2.73, the “E1/2 (1) in CO2” value was −0.9 V, the “E1/2 (2) in CO2” value is recorded as −1.63 V and the “E1/2 (2) in N2” value is on record as −1.75 V.
With `O=C1C=CC(=O)c2ccccc21` [p-NQ], in data set [4], the logKCO2 is listed as 14.74, the “E1/2 (1) in CO2” value is −1.23 V, the “E1/2 (2) in CO2” value is on record as −1.23 V and the “E1/2 (2) in N2” value is recorded as −2.06 V.
